# Reference: patent US20060154895A1, “Method of treating acquired immunedeficiency syndrome” (priority 2004, published 2006)
# Legend:
# [1] = test system: T-cells; test: Blood T-cell levels after curdlan sulfate alone in HIV infected patients; type: in vivo, human; conditions: curdlan sulfate administered by itself to HIV infected patients
# Description: The present invention provides a treatment method for HIV infections that is designed to completely eradicate the HIV virus. […] The reappearance of HIV virus in the blood after the interruption of current therapies makes it likely that the HIV virus is capable of being retained in some biological reservoir where current therapies are unable to create an environment that inhibits or destroys the HIV virus. […] The large increase in T-cells is believed to be due to a release or flushing of T-cells from a biological repository or storage site rather than a biological production of new T-cells. This phenomenon has caused the applicants to theorize that the repository or storage site for the T-cells is also a sanctuary for the HIV virus which appears to have an ability to shield itself from the effects of anti-HIV drugs which are circulated in the blood to all of the bodies organs. The invention is directed to the administration of an entry/fusion inhibitor after a HAART drug combination has been administered in an effective amount for a sufficient time to cause the HIV cells to been eradicated from the blood stream. Thereafter, the entry/fusion inhibitor is administered in an effective amount for a sufficient period of time to eradicate the HIV cells.
# [2] = Tolerance screening: daily IV dose escalation of curdlan sulfate until APTT is doubled (MTD); type: in vivo, human; conditions: IV infusion, HIV positive patients
# Description: Patients are selected for treatment with the method of the invention based on the fact that they have previously tested positive for HIV and presently have some detectable level of HIV. Initially, the patients are screened for the effect of curdlan sulfate on coagulation times by measuring the time to coagulation using the activated partial thromboplastin time test (APTT) after IV infusion of 50 mg of curdlan sulfate in over a period of 30 minutes. A test dose of […] of curdlan sulfate is given on the first day and each day thereafter, the dose of curdlan sulfate is increased in 50 mg increments until the APTT is doubled. […] When the MTD is determined for each patient, the MTD is repeated daily for 21 days while the particular dosage regimen of the HAART drugs is continued. After the 21 days of curdlan sulfate therapy is completed, the HAART treatment regimen is also suspended and the viral load is determined daily. If there is no measurable viral load after this treatment, the treatment is deemed to be successful. If the viral load returns to measurable levels for three days, the HAART therapy may be reinstituted followed by another sequence of curdlan sulfate therapy.
substance,measurement,setting,value
curdlan sulfate,detectable blood levels of T-cells,[1],large increases in detectable bloods levels of T-cells
same,bleeding at the MTD,[2],no bleeding at the site of injection or elsewhere is detected
